Format in all cases: tissue-based
Assay [1] is filed under the species Rattus norvegicus. The experiment in a line: Inhibition of PDE in Sprague-Dawley rat epididymal adipose tissue assessed as [14C]adenosine recovery at 200 uM by liquid scintillation counting.
Assay [2] in a line: (§1) Inhibition of PDE in Sprague-Dawley rat epididymal adipose tissue assessed as [14C]adenosine recovery by liquid scintillation counting.
The species named for assay [3] is Rattus norvegicus. The description is as §1. The following applies: dose or concentration not given here.
The species named for assay [4] is Rattus norvegicus. The experiment in a line: Inhibition of PDE in Sprague-Dawley rat epididymal adipose tissue assessed as [14C]adenosine recovery at 3.6 uM by liquid scintillation counting.
Assay [5] is filed under the species Rattus norvegicus. Briefly: Inhibition of PDE in Sprague-Dawley rat epididymal adipose tissue assessed as [14C]adenosine recovery at 1 mM by liquid scintillation counting.
Assay [6] is filed under the species Rattus norvegicus. The experiment in a line: Inhibition of PDE in Sprague-Dawley rat epididymal adipose tissue assessed as [14C]adenosine recovery at 100 uM by liquid scintillation counting.
Assay [7] is filed under the species Rattus norvegicus. Briefly: Inhibition of PDE in Sprague-Dawley rat epididymal adipose tissue assessed as [14C]adenosine recovery at 0.05 to 3 ug/ml by liquid scintillation counting.

Bounds are passed on as bounds.

In general, inhibition refers to the percentage by which the read-out fell short of the control. `O=c1c(O)c(-c2ccc(O)cc2)oc2cc(O)cc(O)c12`: the inhibition in the assay listed under Rattus norvegicus [1] was greater than 90%. As a reminder, the IC50 is the concentration at which inhibition is half-maximal. Consider `O=c1cc(-c2ccc(O)c(-c3c(O)cc(O)c4c(=O)cc(-c5ccc(O)cc5)oc34)c2)oc2cc(O)cc(O)c12` [AMENTOFLAVONE], for which the concentration for half-maximal inhibition (IC50) in assay [2] was determined as 270 nM. For the same compound, the inhibition in the assay filed under Rattus norvegicus [3] came to 85%. `COc1cc(O)c2c(=O)cc(-c3ccc(O)c(-c4c(O)cc(O)c5c(=O)cc(-c6ccc(O)cc6)oc45)c3)oc2c1` [SEQUOIAFLAVONE]: in the assay listed under Rattus norvegicus [4], the inhibition was 94%. The IC50 in assay [2] was found to be 1010 nM.

Regarding `Cn1c(=O)c2[nH]cnc2n(C)c1=O`, the inhibition in the assay filed under Rattus norvegicus [5] is greater than 90%. Take `COc1ccc(Cc2nccc3cc(OC)c(OC)cc23)cc1OC`: in the assay filed under Rattus norvegicus [6], the inhibition is greater than 90%. As to `COc1ccc(-c2cc(=O)c3c(O)cc(O)cc3o2)cc1-c1c(O)cc(O)c2c(=O)cc(-c3ccc(O)cc3)oc12` [BILOBETIN], the IC50 in assay [2] was 360 nM. The inhibition in the assay filed under Rattus norvegicus [3] is 84%.

In the case of `COc1ccc(-c2cc(=O)c3c(O)cc(O)c(-c4cc(-c5cc(=O)c6c(O)cc(OC)cc6o5)ccc4OC)c3o2)cc1`, the inhibition in the assay listed under Rattus norvegicus [7] is 10%.

The values above are taken from ChEMBL document CHEMBL1151310, “Inhibition of cAMP-phosphodiesterase by biflavones of Ginkgo biloba in rat adipose tissue” (J Nat Prod, 1998).
